Test results: PMC9276676, “Difluoromethylornithine (DFMO) and AMXT 1501 inhibit capsule biosynthesis in pneumococci” (Scientific Reports, 2022)
In brackets after ≈: the same amount, converted by molar mass. Read-outs that look alike come from different tables or passages of the source.

Tests used:
D39 (serotype 2) capsule = assay: Total capsular polysaccharide (CPS) immunoblot with densitometry; assay type: cell-based, Streptococcus pneumoniae; conditions: D39; for total CPS (capsule) by immunoblot: DFMO 1/8 MIC 34 mM, agmatine 1/4 MIC 20 mM, AMXT 1501 1/2 MIC 7.4 µM, alone or with agmatine
Protocol: (§1) S. pneumoniae strains were cultured with DFMO and AMXT 1501 at varying final concentrations of 1/2, 1/4, and 1/8 MIC to OD600 0.2–0.3 either individually or together to estimate any additive or synergistic effects. Capsular polysaccharides (CPS) were extracted and quantified in triplicate, as described previously[26] with slight modification. Briefly, CPS was extracted in a lysis buffer (4% deoxycholate, 50 µg/mL DNAse I and 50 µg/mL RNAse A) at 37 °C for 10 min and centrifuged at 18,000×g for 10 min. The supernatant (2 µL) was spotted on a 0.2-µm-pore-size nitrocellulose membrane (Thermo Fisher Scientific, Waltham, MA, USA) and oven dried at 60 °C for 15 min. The membranes were blocked and incubated with different types of antisera for capsule detection: antisera type- 4 (for TIGR4), 2 (for D39), polyclonal (for EF3030) and 3 (for WU2) (Cedarlane, Burlington, NC, USA). A conjugated polyclonal goat anti-rabbit IgG-HRP (Agilent Technologies, Santa Clara, CA, USA) was used for enhanced chemiluminescence (ECL) detection in all the strains (Thermo Fisher Scientific, Waltham, MA, USA) and scanned using a ChemiDoc XRS+ with Image Lab software (Bio-Rad, Hercules, CA, USA). Densitometry analysis of the immunoblot was done with NIH ImageJ software.
(§2) We determined the impact of varying concentrations of DFMO (1/8 to 1/2 MIC) on CPS in all serotypes (2, 4, 19F, and 3) used in this study. […] D39 was treated with 1/8 MIC DFMO alone, 1/4 MIC agmatine (Agm) alone, a combination of 1/8 MIC DFMO and 1/4 MIC Agm, and a control without DFMO or Agm. CPS was extracted as described in the previous section and immunoblot analysis with type 2 antisera was performed to detect CPS semi-quantitatively.

WU2 (serotype 3) capsule = assay: as above; assay type: cell-based, Streptococcus pneumoniae; conditions: serotype 3; AMXT 1501 at 1/2 MIC
Protocol: as §1, §2

[1] = tested on: TIGR4 (serotype 4) capsule; assay: as above; assay type: cell-based, Streptococcus pneumoniae; conditions: serotype 4; AMXT 1501 at 1/2 MIC
Protocol: as §1, §2

[2] = tested on: EF3030 (serotype 19F) capsule; assay: as above; assay type: cell-based, Streptococcus pneumoniae; conditions: serotype 19F; AMXT 1501 at 1/2 MIC
Protocol: as §1, §2

[3] = tested on: S. pneumoniae serotype 2 (D39); assay: DFMO susceptibility and growth in THY (OD600, MIC); assay type: cell-based, Streptococcus pneumoniae; conditions: Streptococcus pneumoniae
Protocol: S. pneumoniae serotypes 4 (TIGR4), 2 (D39), 19F (EF3030) and 3 (WU2) were cultured in Todd Hewitt broth supplemented with yeast extract (THY). Supplementation with DFMO ranging from 1.1 to 549 mM was carried out in triplicate in a 96-well plate and incubated at 37 °C and 5% CO2 in a Cytation™ 5 cell imaging multi-mode reader (BioTek, Winooski, VT). The change in optical density at 600 nm (OD600) was measured every hour for 24 h and used to determine the minimum inhibitory concentration (MIC) of DFMO. The optical density data was analyzed using GrowthRates 4.0 software. To determine whether DFMO at sub-MIC is bacteriostatic or lethal to pneumococcal cells, all strains were cultured in the presence or absence of 1/2 MIC DFMO. OD600 was measured every hour and CFU were enumerated on a blood agar plate (BAP) every 2 h over an 8 h incubation period.

S. pneumoniae D39 = assay type: cell-based, Streptococcus pneumoniae
Protocol: This was done to directly compare possible changes in intracellular concentrations of polyamines and capsule precursors as a result of DFMO inhibition of polyamine synthesis to the earlier report where polyamine synthesis was affected via gene deletion in TIGR4[24]. […] Cells were harvested (5000×g, 10 min, 4 °C), re-suspended in extraction solvent [40% acetonitrile, 40% methanol, 20% water with formic acid (0.1 M)] and transferred to bead-beater tubes (MP Biomedicals, Irvine, CA, USA). Cells were lysed using a FastPrep-24™ Classic (45 s, 6.5 m/s, RT, 3 times) (MP Biomedicals, Irvine, CA, USA) and incubated on ice (5 min after each spin). TIGR4 lysates were clarified (6000×g, 5 min, 4 °C), and metabolite differentiation and detection were performed using published protocols[28],[29]. Liquid chromatography-mass spectrometry-based (LC–MS) metabolomic analysis was performed with an Agilent Accurate Mass 6230 TOF coupled with an Agilent 1290 LC system using a Cogent Diamond Hydride Type C column. Briefly, the mobile phase consisted of the following: solvent A (ddH2O with 0.2% formic acid) and solvent B (acetonitrile with 0.2% formic acid). The gradient used was as follows: 0–2 min, 85% B; 3–5 min, 80% B; 6–7 min, 75% B; 8–9 min, 70% B; 10–11.1 min, 50% B; 11.1–14 min 20% B; 14.1–24 min 5% B followed by a 10 min re-equilibration period at 85% B at a flow rate of 0.4 mL/min. Mass axis dynamics was calibrated by continuous infusion of a reference mass solution using an isocratic pump. […] Metabolite identities were searched for using a mass tolerance of < 0.005 Da. Metabolite concentrations from the 5 biological replicates were normalized to biomass based on measurement of residual peptide content in individual samples using the Pierce BCA Protein Assay kit (Thermo Fisher Scientific, Waltham, MA, USA). Data were analyzed using Profinder B.07.00 software (Agilent Technologies, Santa Clara, CA, USA). Extracted molecular features detected in the mass analyzer were identified using accurate mass values and used to generate empirical molecular formulae using an in-house metabolite database that included known intermediates, amino acid precursors and polyamines and their derivatives. Statistical analysis of metabolite peak intensity data was performed using MetaboAnalyst 4.0[30]. Data were normalized (quantile), log transformed and significant fold change between WT and DFMO-treated WT were identified by Student’s t-test (p ≤ 0.05).
To measure the polyamines, glucose and glucuronic acid in D39, TSQ Quantum Access triple-quadrupole tandem mass spectrometer (Thermo Fisher Scientific, Waltham, MA, USA) equipped with acquity UPLC system (Waters, Milford, MA, USA) was operated in positive and negative ion mode. Chromatographic separation was performed on Cogent Diamond Hydride HPLC column (2.1 mm × 150 mm, 4 μm) coupled with Congent Diamond Hydride HPLC Guard column (2.0 mm × 10 mm, 4 μm). The flow rate was 500 µL/min, the sample injection volume was 10 µL, and the column temperature was at 40 °C. The mobile phase A was composed of water with 0.1% v/v formic acid, and mobile phase B was composed of acetonitrile with 0.1% v/v formic acid. The gradient condition was 0 min (5% A, 95% B), 1 min (5% A, 95% B), 4.0 min (30% A, 70% B), 6 min (95% A, 5% B), 6.5 min (95% A, 5% B), 7 min (5% A, 95% B), and 10 min (5% A, 95%B). The total run time was 10 min, and the column eluate directed into the mass spectrometer using an electrospray ionization interface in positive and negative modes. The MS conditions were set as follow: spray voltage = 3500 V, vaporizer temperature = 350 °C, sheath gas = 25 psi, auxiliary gas = 10 psi, and capillary temperature = 350 °C. Samples were run in selected reaction monitoring (SRM) mode, and the optimized MS/MS parameters for ionization are given in Table 1.

[4] = molecular target: T1, SP_0916 (arginine decarboxylase, ADC) (Streptococcus pneumoniae, UniProt A0A0H2UPK4); conditions: Km of the enzyme for the decarboxylase substrate; rows named by product; previously reported ref 18; cited from earlier work
[5] = molecular target: T1, SP_0916 (arginine decarboxylase, ADC); assay: Inhibition of decarboxylase activities of recombinant SP_0916 (LC-MS); assay type: biochemical; conditions: read-out: DFMA IC50
Source text: We determined the impact of DFMO (ODC/ADC inhibitor) and α-difluoromethylarginine (DFMA, an ADC inhibitor) on the decarboxylase activities of SP_0916. BL21(DE3) cells expressing recombinant His tag SP_0916 were lysed with B-PER reagent buffer (Thermo Fisher Scientific, Waltham, MA, USA), lysate separated by loading unto HisPur Cobalt Spin Column (Thermo Fisher Scientific, Waltham, MA, USA), desalted using Sephadex G-25 PD-10 column (GE Healthcare, Chicago, IL, USA), and protein concentration estimated using the Pierce BCA Protein Assay kit (Thermo Fisher Scientific, Waltham, MA, USA).
SP_0916-encoded protein (0.926 µmol L^−1) was mixed with 10 mM substrate (arginine, lysine or ornithine) in the reaction mixture (500 µL reaction volume, 50 mM Tris–HCl, pH 8.0) that contains 2.5 mM MgSO4 and 0.6 mM PLP. DFMO was diluted in water to 3–900 mM and added to the reaction mixture after 5 min preincubation at 37 °C in the dark. DFMA stock was made in a similar manner but was diluted in water to 0.3–1000 µM. The enzyme and inhibitor were incubated at 37 °C for 15 min in the dark and the reaction terminated with 0.3 M perchloric acid. After incubation on ice for 15 min, the samples were neutralized with 25 µL of 10 N KOH and extracted with 1 mL of 1-butanol. The organic layer was dried under nitrogen gas and reconstituted with 100 µL of water containing Spermidine-d8 and Glucose-d7 as an internal standard. Analysis of the extracts was performed on a Surveyor LC–MS system. 5 µL of reconstitution was injected to the LC–MS system for detection of the products (agmatine, cadaverine or putrescine). We used internal standards to normalize and determine the peak intensity (area ratio) for each metabolite detected. Enzyme activity without inhibitor is referred to as a control activity. All experiments were performed in triplicate. The concentration of inhibitor that inhibited 50% of the control activity (IC50 value) was determined by varying the concentration of the indicated DFMO or DFMA and measuring the decarboxylase activity. Sigma Plot v. 12 was used to fit the curve through the points and IC50 values were interpolated from the fitted curve.

[6] = DFMO 34 mM, agmatine 20 mM, AMXT 1501 7.4 µM, p-value in bracket omitted

T1 sequence (A0A0H2UPK4 entry or part of it): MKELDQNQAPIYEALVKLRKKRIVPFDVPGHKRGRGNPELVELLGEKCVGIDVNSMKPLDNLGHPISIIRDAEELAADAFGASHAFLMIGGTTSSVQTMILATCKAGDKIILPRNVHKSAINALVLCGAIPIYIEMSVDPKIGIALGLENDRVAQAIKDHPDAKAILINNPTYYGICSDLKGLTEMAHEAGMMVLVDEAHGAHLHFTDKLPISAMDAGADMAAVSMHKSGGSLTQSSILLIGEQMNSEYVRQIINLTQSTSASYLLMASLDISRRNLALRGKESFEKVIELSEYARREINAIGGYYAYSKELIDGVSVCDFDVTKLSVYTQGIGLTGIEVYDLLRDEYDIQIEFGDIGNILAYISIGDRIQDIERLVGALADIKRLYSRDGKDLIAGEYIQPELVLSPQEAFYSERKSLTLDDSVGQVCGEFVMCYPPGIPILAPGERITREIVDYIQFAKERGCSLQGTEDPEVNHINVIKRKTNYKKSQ

SMILES | total CPS (capsule) by immunoblot (D39 (serotype 2) capsule) | Agmatine, fold change treated D39 /D39 (S. pneumoniae D39; [6]) | Cadaverine, fold change treated D39 /D39 (S. pneumoniae D39; [6]) | Lysine, fold change treated D39 /D39 (S. pneumoniae D39; [6]) | N-acetyl spermidine, fold change treated D39 /D39 (S. pneumoniae D39; [6]) | N-carbamoyl putrescine, fold change treated D39 /D39 (S. pneumoniae D39; [6]) | Ornithine, fold change treated D39 /D39 (S. pneumoniae D39; [6]) | Putrescine, fold change treated D39 /D39 (S. pneumoniae D39; [6]) | Spermidine, fold change treated D39 /D39 (S. pneumoniae D39; [6]) | Spermine, fold change treated D39 /D39 (S. pneumoniae D39; [6]) | Km [4] [µM] | also measured
CCCCCCCCCCCCCCCC(=O)NCCCC[C@@H](N)C(=O)NCCCNCCCCNCCCN [AMXT 1501] | Loss of capsule | -1.5 (0.006) | -1.2 (4.61E-04) | -0.5 (3.48E-04) | -1.6 (0.022) | -1.8 (0.016) | -0.5 (0.004) | -1.4 (0.001) | -5.5 (0.006) | -0.3 (0.455) |  | less capsule compared to untreated controls (densitometry of immunoblots) (D39 (serotype 2) capsule; 1/2 MIC AMXT 1501 (7.4 µM)): 61%; impact on CPS (WU2 (serotype 3) capsule): had no impact on CPS; impact on CPS [1]: had no impact on CPS; impact on CPS [2]: had no impact on CPS; MIC ([3]; read-out: 1/2 MIC): 7.4 µM (≈ 4.21 µg/mL); intracellular glucose (peak intensity) (S. pneumoniae D39; 1/8 MIC DFMO (34 mM), 1/2 MIC AMXT 1501 (7.4 µM)): increases glucose level; intracellular glucuronic acid (peak intensity) (S. pneumoniae D39; 1/8 MIC DFMO (34 mM), 1/2 MIC AMXT 1501 (7.4 µM), separately or in combination): significantly depleted; Arginine, fold change treated D39 /D39 (S. pneumoniae D39; [6]): -0.1 (0.546)
NCCCCN=C(N)N [Agmatine, agmatine] | does not impact the capsule | 10.2 (1.61E-06) | -0.3 (0.204) | 0.1 (0.048) | 0.8 (0.009) | 9.6 (1.58E-05) | 0.1 (0.149) | 3.3 (0.004) | 0.6 (0.283) | 1.4 (3.30E-04) | 110 ± 20 | MIC ([3]; D39, concentration equal to a quarter of the MIC, read-out: 1/4 MIC): 20000 µM (≈ 2600 µg/mL)
NCCCCCN [Cadaverine, cadaverine] |  |  |  |  |  |  |  |  |  |  | 1610 ± 280 | 
N=C(N)NCCC[C@](N)(C(=O)O)C(F)F [DFMA, α-difluoromethylarginine] |  |  |  |  |  |  |  |  |  |  |  | IC50 ([5]; arginine to agmatine, 10 mM substrate, 15 min, 37 °C): 1.1 ± 0.1 µM; IC50 ([5]; lysine to cadaverine, 10 mM substrate, 15 min, 37 °C): 56.6 ± 11.9 µM; IC50 [5]: 40.5 ± 11.6 µM
NCCCCN [Putrescine, putrescine] |  |  |  |  |  |  |  |  |  |  | 3550 ± 280 | 
